{
  "source": "patent US20260151345A1",
  "about": "“FAST-DISSOLVING DOSAGE FORMS AND USES THEREOF” (Astrocyte Pharmaceuticals, Inc., priority 2022, published 2026)",
  "key": {"[1]": {"experiment": "Pharmacokinetics / bioavailability after oral disintegrating tablet dose", "assay_type": "in vivo, male Beagle dogs", "conditions": "for AUC(0-t) / AUC(0-inf) / Cmax / Tmax / half-life: po, 50.75 mg", "protocol": "The purpose of this study was to evaluate the bioavailability of Compound A following administration of the ODT formulation. Animals were administered Compound A, as described in the following table.\n(§1) Dosing occurred at 50.75 mg/dose. The ODT was placed on the dog's tongue and the mouth held shut for approximately 30 seconds to allow the material to dissolve. In each case, the tablet quickly formed a white paste that was adhered to the tongue and was not swallowed whole.\nWhole blood samples were collected from all animals as noted in the following table for determination of test article exposure.\n• Method: LC-MS/MS • Column: Restek Raptor ARC-18 2.7 μm (30×2.1 mm) • Mobile Phase A: 0.1% Formic Acid in Water • Mobile Phase B: 0.1% Formic Acid in Acetonitrile • Ionization: (±) ESI with Ion Spray • Analyte: Compound A • MRM: m/z 324.200/182.200 amu • Internal Standard: Labetalol • MRM: m/z 329.200/294.200 amu • Assay Range (LLOQ and ULOQ): 1-5000 ng/mL\nPharmacokinetic concentration-time data for Compound A was analyzed using non-compartmental methods (Phoenix® WinNonlin® Version 8.1) with nominal sampling times and dosages. The following parameters were calculated whenever possible and as data allowed: Volume of distribution, Clearance, tl/2, C0/Cmax, Tmax, % F. and AUC. Additional parameters may have been calculated as appropriate. Descriptive statistics were generated using Phoenix WinNonlin."}, "male Beagle dogs": {"tested_on": "male Beagle dogs", "experiment": "Tolerability (cageside observations) after ODT dose", "assay_type": "in vivo", "conditions": "50.75 mg/dose via ODT", "protocol": "as §1\nCageside Observations, General signs of toxicity including fecal and urine quality, were completed approximately 1 hour post dose on dose days."}, "[2]": {"conditions": "single ODT dose 50.75 mg/dose, male Beagle dogs"}},
  "note": "Values joined by “and” are separate entries in the source; they are usually repeats but may differ in a detail not shown here. Equal values may be shown once. Read-outs that look alike come from different tables or passages of the source.",
  "data": [
    {"smiles": "CSc1nc(N)c2ncn([C@H]3[C@H](O)[C@H](O)[C@]4(CO)C[C@H]34)c2n1", "note": "[Compound A]", "values": [
      {"measurement": "Compound A Plasma Concentration, individual animals", "setting": "[1]; 0.25 hr postdose, ODT 50.75 mg/dose, male Beagle dogs", "result": "356 ng/mL and 309 ng/mL and 352 ng/mL and 114 ng/mL"},
      {"measurement": "Compound A Plasma Concentration, individual animals", "setting": "[1]; 0.5 hr postdose, ODT 50.75 mg/dose, male Beagle dogs", "result": "2300 ng/mL and 1840 ng/mL and 1690 ng/mL and 622 ng/mL"},
      {"measurement": "Compound A Plasma Concentration, individual animals", "setting": "[1]; 1 hr postdose, ODT 50.75 mg/dose, male Beagle dogs", "result": "2370 ng/mL and 2510 ng/mL and 1810 ng/mL"},
      {"measurement": "Compound A Plasma Concentration, individual animals", "setting": "[1]; 2 hr postdose, ODT 50.75 mg/dose, male Beagle dogs", "result": "1990 ng/mL and 2070 ng/mL and 1530 ng/mL"},
      {"measurement": "Compound A Plasma Concentration, individual animals", "setting": "[1]; 4 hr postdose, ODT 50.75 mg/dose, male Beagle dogs", "result": "1100 ng/mL and 1160 ng/mL and 798 ng/mL"},
      {"measurement": "Compound A Plasma Concentration, individual animals", "setting": "[1]; 8 hr postdose, ODT 50.75 mg/dose, male Beagle dogs", "result": "319 ng/mL and 413 ng/mL and 248 ng/mL"},
      {"measurement": "Compound A Plasma Concentration, individual animals", "setting": "[1]; 24 hr postdose, ODT 50.75 mg/dose, male Beagle dogs", "result": "132 ng/mL and 48.3 ng/mL and 119 ng/mL and 28.8 ng/mL"},
      {"measurement": "Percent F, Mean", "setting": "[1]; N=4, single ODT dose, 4.66 mg/kg dose used for calculation, estimated value", "result": 114, "unit": "%"},
      {"measurement": "concentration at 0.25 h", "setting": "[1]; male, Beagle, dog, plasma, oral, 50.75 mg/dose, 0.25 hr postdose, N=4, ODT 50.75 mg/dose, male Beagle dogs, read-out: Compound A Plasma Concentration, Mean", "result": 283, "unit": "ng/mL"},
      {"measurement": "concentration at 0.5 h", "setting": "[1]; male, Beagle, dog, plasma, oral, 50.75 mg/dose, 0.5 hr postdose, N=4, ODT 50.75 mg/dose, male Beagle dogs, read-out: Compound A Plasma Concentration, Mean", "result": 1610, "unit": "ng/mL"},
      {"measurement": "concentration at 1 h", "setting": "[1]; male, Beagle, dog, plasma, oral, 50.75 mg/dose, 1 hr postdose, N=4, ODT 50.75 mg/dose, male Beagle dogs, read-out: Compound A Plasma Concentration, Mean", "result": 2190, "unit": "ng/mL"},
      {"measurement": "concentration at 1 h", "setting": "[1]; male, Beagle, dog, plasma, oral, 50.75 mg/dose, 1 hr postdose, ODT 50.75 mg/dose, male Beagle dogs, read-out: Compound A Plasma Concentration, individual animals", "result": 2080, "unit": "ng/mL"},
      {"measurement": "concentration at 2 h", "setting": "[1]; male, Beagle, dog, plasma, oral, 50.75 mg/dose, 2 hr postdose, N=4, ODT 50.75 mg/dose, male Beagle dogs, read-out: Compound A Plasma Concentration, Mean", "result": 1810, "unit": "ng/mL"},
      {"measurement": "concentration at 2 h", "setting": "[1]; male, Beagle, dog, plasma, oral, 50.75 mg/dose, 2 hr postdose, ODT 50.75 mg/dose, male Beagle dogs, read-out: Compound A Plasma Concentration, individual animals", "result": 1650, "unit": "ng/mL"},
      {"measurement": "concentration at 4 h", "setting": "[1]; male, Beagle, dog, plasma, oral, 50.75 mg/dose, 4 hr postdose, N=4, ODT 50.75 mg/dose, male Beagle dogs, read-out: Compound A Plasma Concentration, Mean", "result": 1010, "unit": "ng/mL"},
      {"measurement": "concentration at 4 h", "setting": "[1]; male, Beagle, dog, plasma, oral, 50.75 mg/dose, 4 hr postdose, ODT 50.75 mg/dose, male Beagle dogs, read-out: Compound A Plasma Concentration, individual animals", "result": 964, "unit": "ng/mL"},
      {"measurement": "concentration at 8 h", "setting": "[1]; male, Beagle, dog, plasma, oral, 50.75 mg/dose, 8 hr postdose, N=4, ODT 50.75 mg/dose, male Beagle dogs, read-out: Compound A Plasma Concentration, Mean", "result": 354, "unit": "ng/mL"},
      {"measurement": "concentration at 8 h", "setting": "[1]; male, Beagle, dog, plasma, oral, 50.75 mg/dose, 8 hr postdose, ODT 50.75 mg/dose, male Beagle dogs, read-out: Compound A Plasma Concentration, individual animals", "result": 434, "unit": "ng/mL"},
      {"measurement": "concentration at 24 h", "setting": "[1]; male, Beagle, dog, plasma, oral, 50.75 mg/dose, 24 hr postdose, N=4, ODT 50.75 mg/dose, male Beagle dogs, read-out: Compound A Plasma Concentration, Mean", "result": 82, "unit": "ng/mL"},
      {"measurement": "AUC(0-t)", "setting": "[1]; male, Beagle, dog, plasma, N=4, single ODT dose 50.75 mg/dose, male Beagle dogs, read-out: AUC0-24, Mean", "result": 12200, "unit": "ng·h/mL"},
      {"measurement": "AUC(0-inf)", "setting": "[1]; male, Beagle, dog, plasma, N=4, single ODT dose 50.75 mg/dose, male Beagle dogs, read-out: AUCinf, Mean", "result": 13000, "unit": "ng·h/mL"},
      {"measurement": "Cmax", "setting": "[1]; male, Beagle, dog, plasma, N=4, single ODT dose 50.75 mg/dose, male Beagle dogs, read-out: Cmax, Mean", "result": 2250, "unit": "ng/mL"},
      {"measurement": "Tmax", "setting": "[1]; male, Beagle, dog, plasma, N=4, single ODT dose 50.75 mg/dose, male Beagle dogs, read-out: Tmax, Mean", "result": 0.88, "unit": "h"},
      {"measurement": "half-life", "setting": "[1]; male, Beagle, dog, plasma, N=4, single ODT dose 50.75 mg/dose, male Beagle dogs, read-out: t1/2, Mean (converted)", "result": 5.51, "unit": "h"},
      {"measurement": "AUC(0-t)", "setting": "[1]; male, Beagle, dog, plasma, single ODT dose 50.75 mg/dose, male Beagle dogs, read-out: AUC0-24, individual animals", "result": 9020, "unit": "ng·h/mL"},
      {"measurement": "AUC(0-inf)", "setting": "[1]; male, Beagle, dog, plasma, single ODT dose 50.75 mg/dose, male Beagle dogs, read-out: AUCinf, individual animals", "result": 9200, "unit": "ng·h/mL"},
      {"measurement": "Cmax", "setting": "[1]; male, Beagle, dog, plasma, single ODT dose 50.75 mg/dose, male Beagle dogs, read-out: Cmax, individual animals", "result": 1810, "unit": "ng/mL"},
      {"measurement": "Tmax", "setting": "[1]; male, Beagle, dog, plasma, single ODT dose 50.75 mg/dose, male Beagle dogs, read-out: Tmax, individual animals", "result": 1, "unit": "h"},
      {"measurement": "half-life", "setting": "[1]; male, Beagle, dog, plasma, single ODT dose 50.75 mg/dose, male Beagle dogs, read-out: t1/2, individual animals (converted)", "result": 4.41, "unit": "h"},
      {"measurement": "AUC0-24, individual animals", "setting": "[1]; [2]", "result": "13300 ng·h/mL and 12400 ng·h/mL and 14300 ng·h/mL"},
      {"measurement": "AUCinf, individual animals", "setting": "[1]; [2]", "result": "14700 ng·h/mL and 12700 ng·h/mL and 15300 ng·h/mL"},
      {"measurement": "Cmax, individual animals", "setting": "[1]; [2]", "result": "2300 ng/mL and 2370 ng/mL and 2510 ng/mL"},
      {"measurement": "Tmax, individual animals", "setting": "[1]; [2]", "result": 0.50, "unit": "h"},
      {"measurement": "t1/2, individual animals", "setting": "[1]; [2]", "result": "7.51 h and 4.33 h and 5.79 h"},
      {"measurement": "Percent F, individual animals", "setting": "[1]; single ODT dose, 4.66 mg/kg dose used for calculation, estimated from nominal dose and estimated AUCinf, 4.66 mg/kg", "result": "80.5% and 116% (2×) and 143%"},
      {"measurement": "Tolerability", "setting": "male Beagle dogs", "result": "well tolerated"}
    ]}
  ]
}
